Measured values taken from patent US12077503B2, “Substituted cyclic amides and their use as herbicides” (FMC CORPORATION, priority 2015, dated 2024).

Assays:
Format in all cases: in vivo
Kochia (Kochia scoparia) [1] = assay: Test A preemergence; settings: Bassia scoparia, pre-emergence, 240 h, 0 to 100 scale where 0 is no effect and 100 is complete control, read-out: Kochia plant response rating
Summary of the method: (§1)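 Visual injury, scored on a 0–100 scale relative to untreated controls, was recorded about 10 d after application. Treatments were a preemergence soil spray over planted seeds or a postemergence spray on plants at the one- to two-leaf stage, 2 to 10 cm tall, all in loam soil–sand blend in the greenhouse.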

[2] = system: barnyardgrass (Echinochloa crus-galli); assay: Test A preemergence; settings: Echinochloa crus-galli, pre-emergence, 240 h, 0 to 100 scale where 0 is no effect and 100 is complete control, read-out: Barnyardgrass plant response rating
Summary of the method: as §1

[3] = system: giant foxtail (Setaria faberii); assay: Test A preemergence; settings: Setaria faberi, pre-emergence, 240 h, 0 to 100 scale where 0 is no effect and 100 is complete control, read-out: Foxtail, Giant plant response rating
Summary of the method: as §1

[4] = system: pigweed (Amaranthus retroflexus); assay: Test A preemergence; settings: Amaranthus retroflexus, pre-emergence, 240 h, 0 to 100 scale where 0 is no effect and 100 is complete control, read-out: Pigweed plant response rating
[5] = system: ragweed (common ragweed, Ambrosia elatior); assay: Test A preemergence; settings: Ambrosia artemisiifolia, pre-emergence, 240 h, 0 to 100 scale where 0 is no effect and 100 is complete control, read-out: Ragweed plant response rating
Summary of the method: as §1

[6] = system: ryegrass, Italian (Italian ryegrass, Lolium multiflorum); assay: Test A preemergence; settings: Lolium multiflorum, pre-emergence, 240 h, 0 to 100 scale where 0 is no effect and 100 is complete control, read-out: Ryegrass, Italian plant response rating
Summary of the method: as §1

[7] = system: Galium (catchweed bedstraw, Galium aparine); assay: Test A postemergence; settings: Galium, post-emergence, 240 h, Postemergence, read-out: Galium plant response rating (0 to 100 scale)
Summary of the method: as §1

Kochia (Kochia scoparia) [8] = assay: Test A postemergence; settings: Bassia scoparia, post-emergence, 240 h, Postemergence, read-out: Kochia plant response rating (0 to 100 scale)
Summary of the method: as §1

[9] = system: barnyardgrass (Echinochloa crus-galli); assay: Test A postemergence; settings: Echinochloa crus-galli, post-emergence, 240 h, Postemergence
Summary of the method: as §1

[10] = system: blackgrass (Alopecurus myosuroides); assay: Test A postemergence; settings: Alopecurus myosuroides, post-emergence, 240 h, Postemergence, read-out: Blackgrass plant response rating (0 to 100 scale)
Summary of the method: as §1

corn (Zea mays) = assay: Test A postemergence; settings: Zea mays, post-emergence, 240 h, Postemergence, read-out: Corn plant response rating (0 to 100 scale)
Summary of the method: as §1

[11] = system: giant foxtail (Setaria faberii); assay: Test A postemergence; settings: Setaria faberi, post-emergence, 240 h, Postemergence, read-out: Foxtail, Giant plant response rating (0 to 100 scale)
Summary of the method: as §1

[12] = system: pigweed (Amaranthus retroflexus); assay: Test A postemergence; settings: Amaranthus retroflexus, post-emergence, 240 h, Postemergence, read-out: Pigweed plant response rating (0 to 100 scale)
Summary of the method: as §1

[13] = system: ragweed (common ragweed, Ambrosia elatior); assay: Test A postemergence; settings: Ambrosia artemisiifolia, post-emergence, 240 h, Postemergence, read-out: Ragweed plant response rating (0 to 100 scale)
Summary of the method: as §1

[14] = system: ryegrass, Italian (Italian ryegrass, Lolium multiflorum); assay: Test A postemergence; settings: Lolium multiflorum, post-emergence, 240 h, Postemergence, read-out: Ryegrass, Italian plant response rating (0 to 100 scale)
Summary of the method: as §1

[15] = system: wheat (Triticum aestivum); assay: Test A postemergence; settings: Triticum aestivum, post-emergence, 240 h, Postemergence, read-out: Wheat plant response rating (0 to 100 scale)
Summary of the method: as §1

[16] = system: barnyardgrass (Echinochloa crus-galli); assay: Test B flooded paddy test; settings: Echinochloa crus-galli, 250 g ai/ha, Flood; 0 to 100 scale where 0 is no effect and 100 is complete control; read-out: Barnyardgrass plant response rating
Summary of the method: (§2)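 Visual ratings (0 none to 100 complete control) are relative to untreated plants, taken 13–15 d after treatment in a greenhouse. Test material went straight into floodwater standing 3 cm above the soil, kept constant, on plants at the 2-leaf stage.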

[17] = system: ducksalad (Heteranthera limosa); assay: Test B flooded paddy test; settings: Heteranthera limosa, 250 g ai/ha, Flood; 0 to 100 scale where 0 is no effect and 100 is complete control; read-out: Ducksalad plant response rating
Summary of the method: as §2

rice (Oryra sativa) = assay: Test B flooded paddy test; settings: Oryza sativa, 250 g ai/ha, Flood; 0 to 100 scale where 0 is no effect and 100 is complete control; read-out: Rice plant response rating
Summary of the method: as §2

[18] = system: sedge, umbrella (small-flower umbrella sedge, Cyperus difformis); assay: Test B flooded paddy test; settings: Cyperus difformis, 250 g ai/ha, Flood; 0 to 100 scale where 0 is no effect and 100 is complete control; read-out: Sedge, Umbrella plant response rating
Summary of the method: as §2

[19] = 125 g ai/ha, preemergence, visual injury rating, approximately 10 d
[20] = 125 g ai/ha, visual rating about 10 d after treatment
[21] = 31 g ai/ha, 0 is no effect, 100 is complete control

## CN1C[C@H](c2csc3c2CCCC3)[C@@H](C(=O)Nc2ccccc2F)C1=O [Compound 1275]
Kochia (Kochia scoparia) [1]; 31 g ai/ha, Preemergence
  pest or weed control at 31 g/ha: 0%
Kochia (Kochia scoparia) [1]; [19]
  pest or weed control at 125 g/ha: 20%
[2]; 31 g ai/ha, Preemergence
  pest or weed control at 31 g/ha: 70%
[2]; [19]
  pest or weed control at 125 g/ha: 100%
[3]; 31 g ai/ha, Preemergence
  pest or weed control at 31 g/ha: 90%
[3]; [19]
  pest or weed control at 125 g/ha: 100%
[4]; 31 g ai/ha, Preemergence
  pest or weed control at 31 g/ha: 0%
[4]; [19]
  pest or weed control at 125 g/ha: 0%
[5]; 31 g ai/ha, Preemergence
  pest or weed control at 31 g/ha: 0%
[5]; [19]
  pest or weed control at 125 g/ha: 20%
[6]; 31 g ai/ha, Preemergence
  pest or weed control at 31 g/ha: 0%
[6]; [19]
  pest or weed control at 125 g/ha: 0%
[7]; [20]
  pest or weed control at 125 g/ha: 0%
[7]; [21]
  pest or weed control at 31 g/ha: 0%
Kochia (Kochia scoparia) [8]; [20]
  pest or weed control at 125 g/ha: 0%
Kochia (Kochia scoparia) [8]; [21]
  pest or weed control at 31 g/ha: 0%
[9]; 125 g ai/ha, visual rating about 10 d after treatment, read-out: Barnyardgrass plant response rating (0 to 100 scale, 0 no effect, 100 complete control)
  pest or weed control at 125 g/ha: 90%
[9]; 31 g ai/ha, 0 is no effect, 100 is complete control, read-out: Barnyardgrass plant response rating (0 to 100 scale)
  pest or weed control at 31 g/ha: 30%
[10]; [20]
  pest or weed control at 125 g/ha: 0%
[10]; [21]
  pest or weed control at 31 g/ha: 0%
Corn (Zea mays); [20]
  plant injury at 125 g/ha: 0%
Corn (Zea mays); [21]
  plant injury at 31 g/ha: 0%
[11]; [20]
  pest or weed control at 125 g/ha: 70%
[11]; [21]
  pest or weed control at 31 g/ha: 20%
[12]; [20]
  pest or weed control at 125 g/ha: 0%
[12]; [21]
  pest or weed control at 31 g/ha: 0%
[13]; [20]
  pest or weed control at 125 g/ha: 0%
[13]; [21]
  pest or weed control at 31 g/ha: 0%
[14]; [20]
  pest or weed control at 125 g/ha: 0%
[14]; [21]
  pest or weed control at 31 g/ha: 0%
[15]; [20]
  plant injury at 125 g/ha: 0%
[15]; [21]
  plant injury at 31 g/ha: 0%
[16]
  pest or weed control at 250 g/ha: 75%
[17]
  pest or weed control at 250 g/ha: 90%
Rice (Oryra sativa)
  pest or weed control at 250 g/ha: 20%
[18]
  pest or weed control at 250 g/ha: 0%
